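Tested at 5 concentrations; 48 h exposure; 96-well plates; endpoints linearly interpolated, else capped at highest concentration. The concentration for 50% growth inhibition is given as GI50.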 The source made the active and inactive calls. Cut-off read from the data, not from the text of the source: active = GI50 up to about 1.1 µM and inactive = higher.
What was measured:
Experiment in all cases: DTP human tumour cell line panel, 48 h
[1] = test system: 786-0
[2] = test system: A549
[3] = test system: EKVX
[4] = test system: HL-60
[5] = test system: HOP-92
[6] = test system: M14
[7] = test system: NCI-H522
[8] = test system: OVCAR-3
[9] = test system: OVCAR-5
[10] = test system: SF-295
[11] = test system: SF-539
[12] = test system: SK-MEL-28
[13] = test system: SK-MEL-2
[14] = test system: SK-MEL-5
[15] = test system: SK-OV-3
[16] = test system: SNB-75
[17] = test system: SR
[18] = test system: TK-10
[19] = test system: UACC-257

With `CCc1nc2c(O)ccc(O)c2nc1C` the GI50 [1] was 13.5 µM (inactive), the GI50 [2] was 21.8 µM (inactive) and the GI50 [3] was 17.3 µM (inactive). For the same compound, the GI50 [4] was 2.93 µM (inactive), the GI50 [5] was 5.64 µM (inactive) and the GI50 [6] was 15 µM (inactive). The GI50 [7] was 2.56 µM (inactive), the GI50 [8] was 14.7 µM (inactive) and the GI50 [9] was 19.3 µM (inactive). The GI50 [10] was 20 µM (inactive), the GI50 [11] was 17 µM (inactive) and the GI50 [12] was 19.6 µM (inactive). The GI50 [13] was 18 µM (inactive), the GI50 [14] was 17.5 µM (inactive) and the GI50 [15] was 20 µM (inactive). The GI50 [16] was 20.8 µM (inactive), the GI50 [17] was 18.2 µM (inactive) and the GI50 [18] was 22.5 µM (inactive). The GI50 [19] was 17.4 µM (inactive).

For `Cc1ccc(C2(O)CC(c3ccc([N+](=O)[O-])o3)=NN2C(=O)COc2ccccc2Cl)cc1` (stereo unspecified), the GI50 [1] was 5.75 µM (inactive), the GI50 [2] was 18.1 µM (inactive) and the GI50 [3] was 13.6 µM (inactive). The GI50 [4] was 2.84 µM (inactive), the GI50 [5] was 27.4 µM (inactive) and the GI50 [6] was 8.45 µM (inactive). The GI50 [7] was 13.1 µM (inactive), the GI50 [8] was 3.94 µM (inactive) and the GI50 [9] was 32.7 µM (inactive). The GI50 [10] was 15.3 µM (inactive), the GI50 [11] was 17.4 µM (inactive) and the GI50 [12] was 15.2 µM (inactive). The GI50 [13] was 8.07 µM (inactive), the GI50 [14] was 2.75 µM (inactive) and the GI50 [15] was 81.1 µM (inactive). For the same compound, the GI50 [16] was 15.3 µM (inactive), the GI50 [17] was 3.24 µM (inactive) and the GI50 [18] was 35.7 µM (inactive). The GI50 [19] was 8.18 µM (inactive).

`CC12OC3CC(O1)C1(C=O)C4CCC5(C)C(c6ccc(=O)oc6)CCC5(O)C4CCC1(C3)O2` (stereo unspecified) was tested, and the GI50 [1] was 0.122 µM (active), the GI50 [2] was 0.0611 µM (active) and the GI50 [4] was 0.189 µM (active). For the same compound, the GI50 [5] was 0.339 µM (active), the GI50 [6] was 0.242 µM (active) and the GI50 [7] was 0.0479 µM (active). For the same compound, the GI50 [8] was 0.13 µM (active), the GI50 [9] was 0.383 µM (active) and the GI50 [10] was 0.0986 µM (active). The GI50 [11] was 0.102 µM (active), the GI50 [12] was 0.491 µM (active) and the GI50 [13] was 0.268 µM (active). For the same compound, the GI50 [14] was 0.0895 µM (active), the GI50 [15] was 0.213 µM (active) and the GI50 [16] was 0.252 µM (active). The GI50 [17] was 0.0498 µM (active), the GI50 [18] was 0.143 µM (active) and the GI50 [19] was 0.234 µM (active).

In the case of `Fc1ccc(C2SCc3nc4ccccc4n32)c(F)c1` (stereo unspecified), the GI50 [1] is reported as > 100 µM (inactive), the GI50 [2] is reported as 83.8 µM (inactive) and the GI50 [3] is reported as > 100 µM (inactive). The GI50 [4] was 22 µM (inactive), the GI50 [5] was 29.8 µM (inactive) and the GI50 [6] was 73.1 µM (inactive). For the same compound, the GI50 [7] was 30.1 µM (inactive), the GI50 [8] was 51.1 µM (inactive) and the GI50 [9] was 67.6 µM (inactive). For the same compound, the GI50 [10] was 39.4 µM (inactive), the GI50 [11] was > 100 µM (inactive) and the GI50 [13] was 71.9 µM (inactive). For the same compound, the GI50 [14] was 32.1 µM (inactive), the GI50 [15] was > 100 µM (inactive) and the GI50 [16] was > 100 µM (inactive). For the same compound, the GI50 [17] was 34.6 µM (inactive), the GI50 [18] was 32.5 µM (inactive) and the GI50 [19] was 34.4 µM (inactive).

For `CC(=O)OC1C2CCC1C1C2N=NN1c1ccc([N+](=O)[O-])cc1` (stereo unspecified), the GI50 [1] was > 100 µM (inactive), the GI50 [2] was > 100 µM (inactive) and the GI50 [3] was > 100 µM (inactive). The GI50 [4] was > 100 µM (inactive), the GI50 [5] was > 100 µM (inactive) and the GI50 [6] was > 100 µM (inactive). For the same compound, the GI50 [7] was 64.4 µM (inactive), the GI50 [8] was > 100 µM (inactive) and the GI50 [9] was > 100 µM (inactive). For the same compound, the GI50 [10] was > 100 µM (inactive), the GI50 [11] was > 100 µM (inactive) and the GI50 [12] was > 100 µM (inactive). For the same compound, the GI50 [13] was > 100 µM (inactive), the GI50 [14] was > 100 µM (inactive) and the GI50 [15] was > 100 µM (inactive). For the same compound, the GI50 [16] was > 100 µM (inactive), the GI50 [17] was 15.7 µM (inactive) and the GI50 [18] was > 100 µM (inactive). For the same compound, the GI50 [19] was > 100 µM (inactive).

For `CC1NS(=O)(=O)N(C)C1=O` (stereo unspecified), the GI50 [1] was > 10 µM (inactive), the GI50 [2] was > 100 µM (inactive) and the GI50 [4] was > 100 µM (inactive). The GI50 [5] was > 100 µM (inactive), the GI50 [6] was > 100 µM (inactive) and the GI50 [7] was > 100 µM (inactive). For the same compound, the GI50 [8] was > 100 µM (inactive), the GI50 [9] was > 100 µM (inactive) and the GI50 [10] was > 100 µM (inactive). The GI50 [11] was > 100 µM (inactive), the GI50 [12] was > 100 µM (inactive) and the GI50 [13] was > 100 µM (inactive). The GI50 [14] was > 100 µM (inactive), the GI50 [15] was > 100 µM (inactive) and the GI50 [16] was 81.8 µM (inactive). The GI50 [17] was > 100 µM (inactive), the GI50 [18] was > 100 µM (inactive) and the GI50 [19] was > 100 µM (inactive).

Reference: ChEMBL document CHEMBL1201862, “PubChem BioAssay data set” (2004)
